Assay results published in US4859696A, “Precutaneous absorption accelerator and preparation containing same” (Kao Corporation, priority 1984, dated 1989).

Experiments:
[1] = Test of percutaneous absorption of indomethacin; assay type: in vivo, rabbit (Japanese white female); details: as compared to the comparative preparations
Method: Topical agents containing indometacin shown below were prepared and percutaneous absorption was examined with the topical agents.
Seven (7) Japanese white female rabbits weighing about 3 kg were used as one group. The topical agents of the present invention and the comparative preparations were applied onto the normal abdominal skin (10 cm×14 cm) of the rabbits in each group, from which the body hair was cut, respectively, at a dose corresponding to 20 mg of indomethacin. Blood was collected from the vein of the ear after 4, 10 and 20 hours and, blood concentration of indomethacin was measured.

[2] = Change in blood sugar level after rectal administration of insulin solutions to rabbits; assay type: in vivo, rabbit (Japanese white male)
Method: Japanese white male rabbits weighing about 2.5 kg, fasted for 24 hours, were fixed at the back, and each of solutions shown in Table 1 was administered to the rectum of about 2.5 cm from the anus using a tube. Cannule was inserted into the femoral vein of the hind leg to collect about 0.2 ml each of blood in every fixed time interval. Blood sugar level was measured using destrostick. Change in blood sugar level was determined with the passage of time, as the blood sugar level prior to administration being rendered 100%.

[3] = Test for percutaneous absorption of methyl salicylate (cataplasms); assay type: in vivo, rabbit (Japanese white female); details: as compared to the cataplasm for comparison
Method: Cataplasms shown below were prepared and, the percutaneous absorption of methyl salicylate was tested.
Seven (7) Japanese white female rabbits weighing about 3 kg were used as one group. […] Blood was collected from the vein of the femur after 3, 6, 10, 20 and 30 hours and, blood concentration of methyl salicylate was measured.

carrageenin caused edema = test: Inhibition of carrageenin caused edema on the paw of the rat; assay type: in vivo, rat (Wistar male); details: as compared to the comparative preparation
Method: With respect to the topical agents of the present invention, the pharmacological effect was examined according to the inhibition of carrageenin caused edema on the paw of the rat.
Wistar male 10 rats, weighing about 110 g, were used as one group. The volume of the right rear paw of the rats in each group was previously measured using a branched glass container. A 1% carrageenin aqueous solution was subcutaneously injected to the right rear paw sole in a dose of 0.125 ml. Immediately thereafter 0.3 g of indomethacin topical agents were applied to the skin of the right rear paw sole. In the control group, carrageenin alone was injected. Then, the volume of the rear paw was measured every 90 minutes, which was continued until 6 hours after. The rate of edema and the inhibition rate of edema were calculated as described below. [formula]

[4] = 15 mins., this invention, ether derivative 0.1 g with insulin 10/kg, saline 0.65 g, ethanol 0.25 g
[5] = 30 mins., this invention, ether derivative 0.1 g with insulin 10/kg, saline 0.65 g, ethanol 0.25 g
[6] = 45 mins., this invention, ether derivative 0.1 g with insulin 10/kg, saline 0.65 g, ethanol 0.25 g
[7] = 60 mins., this invention, ether derivative 0.1 g with insulin 10/kg, saline 0.65 g, ethanol 0.25 g
[8] = 90 mins., this invention, ether derivative 0.1 g with insulin 10/kg, saline 0.65 g, ethanol 0.25 g
[9] = 120 mins., this invention, ether derivative 0.1 g with insulin 10/kg, saline 0.65 g, ethanol 0.25 g

Compound: CCCCCCCCCCCCOCC(COC)OCC(O)CO (stereo not drawn) [1-O-n-dodecyl-3-O-methyl-2-O-2',3'-dihydroxypropylglycerol]
- percutaneous absorption of indomethacin (in words) [1]: extremely high percutaneous absorption of indomethacin
- Rate of Change in Blood Sugar Level before Administration ([2]; 15 mins., control, ether derivative 1 g): +6.5%
- Rate of Change in Blood Sugar Level before Administration ([2]; 15 mins., this invention, ether derivative 0.05 g with insulin 10/kg, saline 0.70 g, ethanol 0.25 g): -13.4%
- Rate of Change in Blood Sugar Level before Administration [2, 4]: -19.2%
- Rate of Change in Blood Sugar Level before Administration ([2]; 30 mins., control, ether derivative 1 g): +10.2%
- Rate of Change in Blood Sugar Level before Administration ([2]; 30 mins., this invention, ether derivative 0.05 g with insulin 10/kg, saline 0.70 g, ethanol 0.25 g): -18.6%
- Rate of Change in Blood Sugar Level before Administration [2, 5]: -28.9%
- Rate of Change in Blood Sugar Level before Administration ([2]; 45 mins., control, ether derivative 1 g): +9.8%
- Rate of Change in Blood Sugar Level before Administration ([2]; 45 mins., this invention, ether derivative 0.05 g with insulin 10/kg, saline 0.70 g, ethanol 0.25 g): -25.2%
- Rate of Change in Blood Sugar Level before Administration [2, 6]: -32.7%
- Rate of Change in Blood Sugar Level before Administration ([2]; 60 mins., control, ether derivative 1 g): +9.5%
- Rate of Change in Blood Sugar Level before Administration ([2]; 60 mins., this invention, ether derivative 0.05 g with insulin 10/kg, saline 0.70 g, ethanol 0.25 g): -27.6%
- Rate of Change in Blood Sugar Level before Administration [2, 7]: -28.0%
- Rate of Change in Blood Sugar Level before Administration ([2]; 90 mins., control, ether derivative 1 g): +9.5%
- Rate of Change in Blood Sugar Level before Administration ([2]; 90 mins., this invention, ether derivative 0.05 g with insulin 10/kg, saline 0.70 g, ethanol 0.25 g): -25.8%
- Rate of Change in Blood Sugar Level before Administration [2, 8]: -19.5%
- Rate of Change in Blood Sugar Level before Administration ([2]; 120 mins., control, ether derivative 1 g): +10.2%
- Rate of Change in Blood Sugar Level before Administration ([2]; 120 mins., this invention, ether derivative 0.05 g with insulin 10/kg, saline 0.70 g, ethanol 0.25 g): -22.4%
- Rate of Change in Blood Sugar Level before Administration [2, 9]: -18.2%
- percutaneous absorption of methyl salicylate (in words) [3]: extremely high percutaneous absorption of methyl salicylate
- rate of preventing the edema / pharmacological effect of indomethacin (in words) (carrageenin caused edema): extremely high pharmacological effect of indomethacin

Compound: 1-O-methyl-branched isostearyl-3-O-methyl-2-O-2',3'-dihydroxypropylglycerol
- Rate of Change in Blood Sugar Level before Administration [2, 4]: -17.8%
- Rate of Change in Blood Sugar Level before Administration [2, 5]: -18.3%
- Rate of Change in Blood Sugar Level before Administration [2, 6]: -24.5%
- Rate of Change in Blood Sugar Level before Administration [2, 7]: -28.6%
- Rate of Change in Blood Sugar Level before Administration [2, 8]: -21.9%
- Rate of Change in Blood Sugar Level before Administration [2, 9]: -19.8%

Compound: Insulin: Insulin 10/kg in 25% Ethanol solution (control of Table 1)
- Rate of Change in Blood Sugar Level before Administration ([2]; 15 mins., control, insulin 10/kg in 25% ethanol solution): +5.0%
- Rate of Change in Blood Sugar Level before Administration ([2]; 30 mins., control, insulin 10/kg in 25% ethanol solution): +12.9%
- Rate of Change in Blood Sugar Level before Administration ([2]; 45 mins., control, insulin 10/kg in 25% ethanol solution): +11.5%
- Rate of Change in Blood Sugar Level before Administration ([2]; 60 mins., control, insulin 10/kg in 25% ethanol solution): +4.8%
- Rate of Change in Blood Sugar Level before Administration ([2]; 90 mins., control, insulin 10/kg in 25% ethanol solution): +1.5%
- Rate of Change in Blood Sugar Level before Administration ([2]; 120 mins., control, insulin 10/kg in 25% ethanol solution): +2.7%
